Results as given in patent publication US5616123A, “Delivery of solid drug compositions” (Delab, priority 1995, dated 1997).

Columns and labels:
[1] = cited from earlier work; for solubility: in words
[2] = plasma levels of BN 50730 after subcutaneous injection (FIGS. 13, 14); format: in vivo, rabbits
Method: These cylinders were injected subcutaneously into rabbits at a dosage of 2.0 mg/kg for a comparison study with BN 50730 mixed with propylene glycol. […] This 10 ng/ml is a sufficient concentration for a pharmacological effect.

Row | Compound | water solubility [1] | solubility [1] | sufficient concentration for a pharmacological effect ([2]; plasma concentration) [ng/ml] | effect in plasma (onset) ([2]; solid formulation, subcutaneous, rabbits, 2.0 mg/kg)
1 | Recombinant human insulin [RHI] | water soluble |  |  | 
2 | bovine pancreas insulin [BPI] | water insoluble |  |  | 
3 | CCCCNc1ccc(C(=O)OCCN(C)C)cc1 [tetracaine] |  | soluble |  | 
4 | COc1ccc(NC(=S)N2CCc3c(sc4c3C(c3ccccc3Cl)=NCc3nnc(C)n3-4)C2)cc1 [BN 50730, 4,7,8,10-tetrahydro-1-methyl-6-(2-chlorphenyl)-9-(4-methoxyphenyl-thiocarbamoyl)-pyrrido-[4',3'-4,5]thieno[3,2-f]-1,2,4-triazolo[4,3-a]1,4-diazepine] |  | insoluble | 10 | immediate effect in plasma
